In PubChem BioAssay (NCI):
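Test compounds were applied to cells in 96-well plates for 48 hours at 5 doses. GI50 = concentration required for 50% inhibition of growth. The concentration for full growth arrest is given as TGI.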

Columns and labels:
Assay in all cases: NCI-60 cell line screen, 48 h
HCC-2998 colon = tested on: HCC-2998 colon
HOP-62 NSCLC = tested on: HOP-62 NSCLC
LOX IMVI melanoma = tested on: LOX IMVI melanoma
NCI-H23 lung = tested on: NCI-H23 lung
NCI-H522 lung = tested on: NCI-H522 lung
SF-539 CNS = tested on: SF-539 CNS
SK-OV-3 ovarian = tested on: SK-OV-3 ovarian
UACC-62 melanoma = tested on: UACC-62 melanoma
SK-MEL-28 melanoma = tested on: SK-MEL-28 melanoma
MALME-3M melanoma = tested on: MALME-3M melanoma

SMILES	TGI (HCC-2998 colon)	TGI (HOP-62 NSCLC)	TGI (LOX IMVI melanoma)	TGI (NCI-H23 lung)	TGI (NCI-H522 lung)	TGI (SF-539 CNS)	TGI (SK-OV-3 ovarian)	TGI (UACC-62 melanoma)	GI50 (HCC-2998 colon)	GI50 (HOP-62 NSCLC)	GI50 (NCI-H23 lung)	GI50 (NCI-H522 lung)	GI50 (SF-539 CNS)	GI50 (SK-MEL-28 melanoma)	TGI (SK-MEL-28 melanoma)	GI50 (SK-OV-3 ovarian)	GI50 (UACC-62 melanoma)	TGI (MALME-3M melanoma)	GI50 (LOX IMVI melanoma)	GI50 (MALME-3M melanoma)
CC(=O)NC1=NC(=O)/C(=C/c2ccc(Cl)cc2Cl)N1C	> 100 µM	> 100 µM	> 100 µM	> 100 µM	> 100 µM	> 100 µM	> 100 µM	88.2 µM	–	–	–	–	–	–	–	–	–	–	–	–
COC(=O)C1=C(O)C(C(=O)OC)[C@@]2(O)[C@@H](C(=O)OC)C(c3ccccc3C(F)(F)F)C[C@@H]1[C@@H]2C(=O)OC (stereo partly drawn)	27.2 µM	36.4 µM	–	11.6 µM	33.2 µM	5.71 µM	7 µM	15 µM	14.2 µM	20.4 µM	3.44 µM	16.8 µM	2.14 µM	2.13 µM	14.5 µM	1.58 µM	4.09 µM	–	–	–
OCCOCn1nc(-c2ccccc2)nc1-c1cnccn1	> 100 µM	> 100 µM	> 100 µM	> 100 µM	> 100 µM	> 100 µM	> 100 µM	> 100 µM	–	–	–	–	–	–	> 100 µM	–	–	–	–	–
O=C(CC1Sc2ccccc2NC1=O)Nc1ccc([N+](=O)[O-])cc1[N+](=O)[O-] (stereo not drawn)	> 100 µM	> 100 µM	30.1 µM	27.2 µM	–	–	–	28.8 µM	–	–	–	–	–	–	31.8 µM	–	–	40.6 µM	–	–
O=C(CCCCCn1c2ccccc2c2c3c(c4c5ccccc5[nH]c4c21)C(=O)N(O)C3=O)N1CCOCC1	3.54 µM	6.74 µM	2.57 µM	5.47 µM	3.14 µM	–	5.81 µM	5.4 µM	1.85 µM	2.77 µM	2.11 µM	1.38 µM	–	2.32 µM	5.4 µM	2.27 µM	2.05 µM	6.34 µM	1.05 µM	2.26 µM
COC(=O)C(=O)C(C(=O)C(=O)Nc1ccc(Cl)cc1Cl)c1nc2ccc(Cl)cc2[nH]c1=O (stereo not drawn)	> 100 µM	> 100 µM	> 100 µM	> 100 µM	> 100 µM	> 100 µM	> 100 µM	> 100 µM	–	–	–	–	–	–	> 100 µM	–	–	–	–	–
COc1ccc(/C=N\N2C(=O)Cc3ccccc32)cc1	> 100 µM	> 100 µM	> 100 µM	> 100 µM	–	> 100 µM	> 100 µM	> 100 µM	–	–	–	–	–	–	> 100 µM	–	–	> 100 µM	–	–
COc1ccc(-c2ccc(/C=N/n3cnn(CN4CCN(C)CC4)c3=S)o2)c([N+](=O)[O-])c1	–	> 100 µM	66.8 µM	54.6 µM	> 100 µM	34.1 µM	> 100 µM	40 µM	–	34.1 µM	16.8 µM	45 µM	17 µM	44.5 µM	> 100 µM	36.4 µM	16.1 µM	> 100 µM	23.3 µM	36.9 µM
CC(=O)O/N=C1\C=Cc2c(no[n+]2[O-])C1=O	38.7 µM	> 100 µM	36.2 µM	35.5 µM	32.8 µM	31.3 µM	–	30.2 µM	–	–	–	–	–	–	36.9 µM	–	–	28.1 µM	–	–
